Results from ChEMBL document CHEMBL3585240, “Synthesis and biological evaluation of caracasine acid derivatives” (Bioorg Med Chem, 2015).
The source made the active and inactive calls. No cut-off for these calls is given here.

Key:
[1] = test system: Pseudomonas aeruginosa; assay: Antibacterial activity against Pseudomonas aeruginosa ATCC 27853 assessed as growth inhibition at 2 mg/ml after 24 hrs by disc agar diffusion method; format: functional; conditions: for zone of inhibition at 2000 µg/mL: ATCC 27853, 24 h, read-out: DIZ
[2] = test system: Bacillus cereus; assay: Antibacterial activity against Bacillus cereus ATCC 14579 assessed as growth inhibition at 2 mg/ml after 24 hrs by disc agar diffusion method; format: functional; conditions: for zone of inhibition at 2000 µg/mL: ATCC 14579, 24 h, read-out: DIZ
[3] = test system: Staphylococcus aureus; assay: Antibacterial activity against Staphylococcus aureus ATCC 25923 assessed as growth inhibition at 2 mg/ml after 24 hrs by disc agar diffusion method; format: functional; conditions: for zone of inhibition at 2000 µg/mL: ATCC 25923, 24 h, read-out: DIZ
[4] = test system: Escherichia coli; assay: Antibacterial activity against Escherichia coli ATCC 35218 assessed as growth inhibition at 2 mg/ml after 24 hrs by disc agar diffusion method; format: functional; conditions: for zone of inhibition at 2000 µg/mL: ATCC 35218, 24 h, read-out: DIZ
[5] = Cytotoxicity against human skin fibroblasts assessed as growth inhibition after 72 hrs by MTT assay; conditions: Skin fibroblast
[6] = test system: MCF7; assay: Cytotoxicity against human MCF7 cells assessed as growth inhibition after 72 hrs by MTT assay; format: functional, cell-based; conditions: MCF7, 72 h
[7] = test system: Leishmania mexicana; assay: Antileishmanial activity against promastigote stage of Leishmania mexicana Bel21 assessed as growth inhibition after 48 hrs by MTT assay; format: functional, organism-based; conditions: Bel21, 48 h
[8] = test system: MCF7; assay: Selectivity index, ratio of IC50 for human skin fibroblasts to IC50 for human MCF7 cells
[9] = Selectivity index, ratio of IC50 for human skin fibroblasts to IC50 for epimastigote stage of Trypanosoma cruzi CL Brener
[10] = test system: PC-3; assay: Selectivity index, ratio of IC50 for human skin fibroblasts to IC50 for human PC3 cells
[11] = Selectivity index, ratio of IC50 for human skin fibroblasts to IC50 for promastigote stage of Leishmania mexicana Bel21
[12] = test system: Trypanosoma cruzi; assay: Antitrypanosomal activity against epimastigote stage of Trypanosoma cruzi CL Brener assessed as growth inhibition after 5 days by MTT assay; format: functional; conditions: 120 h
[13] = test system: PC-3; assay: Cytotoxicity against human PC3 cells assessed as growth inhibition after 72 hrs by MTT assay; format: functional, cell-based; conditions: PC-3, 72 h
[14] = test system: Pseudomonas aeruginosa; assay: Antibacterial activity against Pseudomonas aeruginosa ATCC 27853 assessed as growth inhibition at 30 ug after 24 hrs by disc agar diffusion method; format: functional; conditions: ATCC 27853, 24 h, read-out: DIZ
[15] = test system: Staphylococcus aureus; assay: Antibacterial activity against Staphylococcus aureus ATCC 25923 assessed as growth inhibition at 30 ug after 24 hrs by disc agar diffusion method; format: functional; conditions: ATCC 25923, 24 h, read-out: DIZ
[16] = test system: Escherichia coli; assay: Antibacterial activity against Escherichia coli ATCC 35218 assessed as growth inhibition at 30 ug after 24 hrs by disc agar diffusion method; format: functional; conditions: ATCC 35218, 24 h, read-out: DIZ
[17] = test system: Bacillus cereus; assay: Antibacterial activity against Bacillus cereus ATCC 14579 assessed as growth inhibition at 30 ug after 24 hrs by disc agar diffusion method; format: functional; conditions: ATCC 14579, 24 h, read-out: DIZ

Row | IC50 [12] [µM] | SMILES | zone of inhibition at 2000 µg/mL [1] [mm] | zone of inhibition at 2000 µg/mL [2] [mm] | zone of inhibition at 2000 µg/mL [3] [mm] | zone of inhibition at 2000 µg/mL [4] [mm] | IC50 [5] [µM] | growth inhibition (GI) [3] | IC50 [6] [µM] | IC50 [7] [µM] | Ratio IC50 [8] | growth inhibition (GI) [4] | growth inhibition (GI) [1] | Ratio IC50 [9] | Ratio IC50 [10] | Ratio IC50 [11] | IC50 [13] [µM] | also measured
1 |  | C=C(C)[C@H]1CC[C@@]23C[C@H](CC[C@H]2[C@]1(C)CCC(=O)O)C(COCC)C3=O (stereo partly drawn) | 15 | 10 | 12 | 14 |  |  |  |  |  |  |  |  |  |  |  | 
2 |  | C=C(C)[C@H]1CC[C@@]23C[C@H](CC[C@H]2[C@]1(C)CCC(=O)O)C(C)C3=O (stereo partly drawn) | 18 | 20 |  |  | > 157 | inactive | 110 | > 47 | >1.4 | inactive |  |  |  |  |  | 
3 |  | C=C(C)[C@H]1CC[C@@]23C[C@H](CC[C@H]2[C@]1(C)CCC(=O)OC)C(CC(C#N)P(=O)(OCC)OCC)C3=O (stereo partly drawn) |  |  |  |  |  | inactive |  |  |  | inactive | inactive |  |  |  |  | growth inhibition (GI) [2]: inactive
4 | 4.1 | C=C1C(=O)[C@@]23CC[C@H](C(=C)C)[C@@](C)(CCC(=O)OCc4ccccc4)[C@@H]2CC[C@H]1C3 | 15 | 24 | 15 | 22 | 3.1 |  | 3.7 | 1 | 0.8 |  |  | 0.8 | 0.6 | 3.1 | 5.5 | 
5 |  | C=C1C(=O)[C@@]23CC[C@H](C4(C)CO4)[C@@](C)(CCC(=O)O)[C@@H]2CC[C@H]1C3 (stereo partly drawn) | 18 | 20 | 25 | 18 | 24.7 |  | 22.6 |  | 1.1 |  |  |  | 3.9 |  | 6.4 | 
6 | 4.1 | C=C1C(=O)[C@@]23CC[C@H](C(=C)C)[C@@](C)(CCC(=O)OC(C)C)[C@@H]2CC[C@H]1C3 | 15 |  | 15 |  | 7.5 |  | 5.4 | 1.5 | 1.4 | inactive |  | 1.8 | 1.4 | 5 | 5.4 | growth inhibition (GI) [2]: inactive
7 | 3.1 | C=C1C(=O)[C@@]23CC[C@H](C(=C)C)[C@@](C)(CCC(=O)OCCC)[C@@H]2CC[C@H]1C3 |  | 20 | 12 |  | 6.2 |  | 6.6 | 1.5 | 0.9 | inactive | inactive | 2 | 1.5 | 4.1 | 4.2 | 
8 |  | C=C(C)[C@H]1CC[C@@]23C[C@H](CC[C@H]2[C@]1(C)CCC(=O)OC)C(COC)C3=O (stereo partly drawn) | 15 | 12 | 13 | 15 |  |  |  |  |  |  |  |  |  |  |  | 
9 | 4.2 | C=C1C(=O)[C@@]23CC[C@H](C(=C)C)[C@@](C)(CCC(=O)OCCCC)[C@@H]2CC[C@H]1C3 |  |  |  |  | 7 | inactive | 5.6 | 1.2 | 1.3 | inactive | inactive | 1.7 | 1.5 | 5.8 | 4.7 | growth inhibition (GI) [2]: inactive
10 |  | C=C(C)[C@H]1CC[C@@]23C[C@H](CC[C@H]2[C@]1(C)CCC(=O)O)C(CC#N)C3=O (stereo partly drawn) |  |  |  |  | 51.9 | inactive | 144 | > 44 | 0.5 | inactive | inactive |  |  | <1.2 | > 138 | growth inhibition (GI) [2]: inactive
11 |  | NCC[C@H](O)C(=O)N[C@@H]1C[C@H](N)[C@@H](O[C@H]2O[C@H](CN)[C@@H](O)[C@H](O)[C@H]2O)[C@H](O)[C@H]1O[C@H]1O[C@H](CO)[C@@H](O)[C@H](N)[C@H]1O [AMIKACIN] |  |  |  |  |  |  |  |  |  |  |  |  |  |  |  | zone of inhibition at 30 µg/disc [14]: 16 mm; zone of inhibition at 30 µg/disc [15]: 16 mm; zone of inhibition at 30 µg/disc [16]: 22 mm; zone of inhibition at 30 µg/disc [17]: 32 mm
12 | 22.3 | C=C1C(=O)[C@@]23CC[C@H](C(=C)C)[C@@](C)(CCC(=O)O)[C@@H]2CC[C@H]1C3 | 30 | 22 | 24 | 22 | 39.7 |  | 15.8 | 30.8 | 2.5 |  |  | 1.8 | 5 | 1.3 | 7.9 | 
13 | 5.5 | C=C1C(=O)[C@@]23CC[C@H](C(=C)C)[C@@](C)(CCC(=O)OC4CCCCC4)[C@@H]2CC[C@H]1C3 | 30 | 12 | 30 | 28 | < 3.9 |  | 2.1 | 1.2 | 1.9 |  |  | <0.7 | 2.1 | <3.3 | 1.9 | 
14 | 2.7 | C=C1C(=O)[C@@]23CC[C@H](C(=C)C)[C@@](C)(CCC(=O)OCC)[C@@H]2CC[C@H]1C3 |  |  |  |  | 3.7 | inactive | 5.1 | 1.6 | 0.7 | inactive | inactive | 1.4 | 0.8 | 2.3 | 4.4 | growth inhibition (GI) [2]: inactive
15 | 42.6 | C=C1C(=O)[C@@]23CC[C@H](C(C)(O)CO)[C@@](C)(CCC(=O)O)[C@@H]2CC[C@H]1C3 (stereo partly drawn) |  | 20 |  | 15 | 25.4 | inactive | 46.3 | 42.8 | 0.5 |  | inactive | 0.6 | 1.2 | 0.6 | 21.9 | 
16 |  | C=C1C(O)[C@@]23CC[C@H](C(=C)C)[C@@](C)(CCC(=O)O)[C@@H]2CC[C@H]1C3 (stereo partly drawn) | 20 | 15 | 12 | 12 | 207 |  | 86.8 | > 30 | 2.4 |  |  |  | 1.5 | <6.9 | 137 | 
17 | 39.3 | C=C(C)[C@H]1CC[C@@]23C[C@H](CC[C@H]2[C@]1(C)CCC(=O)O)C(CSCc1ccccc1)C3=O (stereo partly drawn) | 15 | 20 | 22 | 25 | 42.7 |  |  | 22.1 |  |  |  | 1.1 |  | 1.9 |  | 
18 | 2.8 | C=C1C(=O)[C@@]23CC[C@H](C(=C)C)[C@@](C)(CCC(=O)NC4CCCCC4)[C@@H]2CC[C@H]1C3 | 12 | 15 | 15 | 16 | 12 |  | 10 | 2 | 1.2 |  |  | 4.3 | 3.1 | 6 | 3.9 | 
19 | 16.5 | C=C1C(=O)[C@@]23CC[C@H](C(=C)C)[C@@](C)(CCC(=O)OC)[C@@H]2CC[C@H]1C3 | 15 | 22 | 12 | 15 | 11.3 |  | 11.2 | 3.4 | 1 |  |  | 0.7 | 3.1 | 3.3 | 3.6 | 
